From patent US20240165244A1 (Prelude Therapeutics Incorporated, priority 2022, published 2024) come the findings set out here.

Broadly, the DC50 is the concentration giving 50% degradation. A higher DC50 goes with degradation only at high concentration. For orientation: Dmax means the largest share of the target that was removed.

The target in one assay is T1, SMARCA4 (Homo sapiens, UniProt P51532).
T1 construct: SMARCA4-HiBiT knock-in Hela monoclonal cell (CS3023226); host or cells: HeLa monoclonal cells with heterozygous HiBiT knock-in at the endogenous SMARCA4 locus
T1 sequence (P51532 whole entry): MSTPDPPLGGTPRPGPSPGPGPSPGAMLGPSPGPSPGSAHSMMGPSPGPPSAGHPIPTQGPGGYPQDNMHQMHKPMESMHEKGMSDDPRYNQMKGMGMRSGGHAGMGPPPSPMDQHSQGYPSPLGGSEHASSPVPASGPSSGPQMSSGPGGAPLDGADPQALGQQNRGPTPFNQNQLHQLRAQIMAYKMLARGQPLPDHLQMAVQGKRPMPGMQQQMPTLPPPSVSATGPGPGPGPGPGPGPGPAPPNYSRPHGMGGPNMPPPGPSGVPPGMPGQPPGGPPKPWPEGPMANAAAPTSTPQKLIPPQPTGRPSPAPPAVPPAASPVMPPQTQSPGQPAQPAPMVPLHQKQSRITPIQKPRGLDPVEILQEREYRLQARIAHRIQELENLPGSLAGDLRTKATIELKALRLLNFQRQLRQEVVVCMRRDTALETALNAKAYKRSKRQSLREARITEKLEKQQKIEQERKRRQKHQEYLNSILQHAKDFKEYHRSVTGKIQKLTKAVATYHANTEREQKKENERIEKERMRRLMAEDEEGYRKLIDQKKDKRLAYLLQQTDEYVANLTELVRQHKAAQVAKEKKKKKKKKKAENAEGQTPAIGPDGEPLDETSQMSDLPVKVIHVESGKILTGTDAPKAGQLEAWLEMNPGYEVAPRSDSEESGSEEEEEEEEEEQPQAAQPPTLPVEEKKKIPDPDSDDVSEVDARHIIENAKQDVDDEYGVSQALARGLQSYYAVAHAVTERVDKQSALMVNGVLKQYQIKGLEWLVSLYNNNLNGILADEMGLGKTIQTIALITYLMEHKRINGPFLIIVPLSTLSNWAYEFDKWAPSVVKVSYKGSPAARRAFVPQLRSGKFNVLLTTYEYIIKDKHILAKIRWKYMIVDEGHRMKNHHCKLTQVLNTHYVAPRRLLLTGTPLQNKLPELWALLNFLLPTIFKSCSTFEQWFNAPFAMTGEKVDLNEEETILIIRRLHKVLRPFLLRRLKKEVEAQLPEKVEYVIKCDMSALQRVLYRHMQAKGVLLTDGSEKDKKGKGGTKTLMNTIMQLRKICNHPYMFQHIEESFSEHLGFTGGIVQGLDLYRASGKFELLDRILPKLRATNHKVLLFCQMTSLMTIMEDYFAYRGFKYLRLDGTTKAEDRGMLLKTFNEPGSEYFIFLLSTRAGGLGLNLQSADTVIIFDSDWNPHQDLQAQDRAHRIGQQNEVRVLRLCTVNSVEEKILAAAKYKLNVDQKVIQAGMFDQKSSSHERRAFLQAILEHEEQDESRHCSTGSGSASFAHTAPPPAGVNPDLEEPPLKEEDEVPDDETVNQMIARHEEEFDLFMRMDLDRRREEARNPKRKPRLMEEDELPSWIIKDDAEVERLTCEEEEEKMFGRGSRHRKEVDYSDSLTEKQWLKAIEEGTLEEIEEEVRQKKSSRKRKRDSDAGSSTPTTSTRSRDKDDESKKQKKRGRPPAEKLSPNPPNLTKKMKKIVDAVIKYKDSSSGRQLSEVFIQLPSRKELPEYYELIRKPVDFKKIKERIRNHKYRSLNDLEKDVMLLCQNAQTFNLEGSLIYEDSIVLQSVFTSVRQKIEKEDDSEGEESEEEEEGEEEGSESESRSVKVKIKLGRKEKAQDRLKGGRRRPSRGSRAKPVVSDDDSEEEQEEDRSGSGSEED
Put plainly: SMARCA4 HiBiT degradation assay in HeLa cells. In kind it is cell-based. The settings on record: 18 hours, highest concentration 10 μM. The essentials: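 HeLa monoclonal cells with HiBiT knocked into SMARCA4 were seeded at 2500 cells/well, dosed with compound and incubated 18 hours at 37° C. HiBiT signal reported remaining SMARCA4 protein, and values came from curve fitting.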
In general terms: With HiBiT, luminescence reflects the tagged protein that the partner subunit can reach.

For another assay, the target named is T2, SMARCA2 (Homo sapiens, UniProt P51531).
T2 construct: SMARCA2-HiBiT knock-in Hela monoclonal cell (CS302366); host or cells: HeLa monoclonal cells with heterozygous HiBiT knock-in at the endogenous SMARCA2 locus
T2 sequence (P51531 whole entry): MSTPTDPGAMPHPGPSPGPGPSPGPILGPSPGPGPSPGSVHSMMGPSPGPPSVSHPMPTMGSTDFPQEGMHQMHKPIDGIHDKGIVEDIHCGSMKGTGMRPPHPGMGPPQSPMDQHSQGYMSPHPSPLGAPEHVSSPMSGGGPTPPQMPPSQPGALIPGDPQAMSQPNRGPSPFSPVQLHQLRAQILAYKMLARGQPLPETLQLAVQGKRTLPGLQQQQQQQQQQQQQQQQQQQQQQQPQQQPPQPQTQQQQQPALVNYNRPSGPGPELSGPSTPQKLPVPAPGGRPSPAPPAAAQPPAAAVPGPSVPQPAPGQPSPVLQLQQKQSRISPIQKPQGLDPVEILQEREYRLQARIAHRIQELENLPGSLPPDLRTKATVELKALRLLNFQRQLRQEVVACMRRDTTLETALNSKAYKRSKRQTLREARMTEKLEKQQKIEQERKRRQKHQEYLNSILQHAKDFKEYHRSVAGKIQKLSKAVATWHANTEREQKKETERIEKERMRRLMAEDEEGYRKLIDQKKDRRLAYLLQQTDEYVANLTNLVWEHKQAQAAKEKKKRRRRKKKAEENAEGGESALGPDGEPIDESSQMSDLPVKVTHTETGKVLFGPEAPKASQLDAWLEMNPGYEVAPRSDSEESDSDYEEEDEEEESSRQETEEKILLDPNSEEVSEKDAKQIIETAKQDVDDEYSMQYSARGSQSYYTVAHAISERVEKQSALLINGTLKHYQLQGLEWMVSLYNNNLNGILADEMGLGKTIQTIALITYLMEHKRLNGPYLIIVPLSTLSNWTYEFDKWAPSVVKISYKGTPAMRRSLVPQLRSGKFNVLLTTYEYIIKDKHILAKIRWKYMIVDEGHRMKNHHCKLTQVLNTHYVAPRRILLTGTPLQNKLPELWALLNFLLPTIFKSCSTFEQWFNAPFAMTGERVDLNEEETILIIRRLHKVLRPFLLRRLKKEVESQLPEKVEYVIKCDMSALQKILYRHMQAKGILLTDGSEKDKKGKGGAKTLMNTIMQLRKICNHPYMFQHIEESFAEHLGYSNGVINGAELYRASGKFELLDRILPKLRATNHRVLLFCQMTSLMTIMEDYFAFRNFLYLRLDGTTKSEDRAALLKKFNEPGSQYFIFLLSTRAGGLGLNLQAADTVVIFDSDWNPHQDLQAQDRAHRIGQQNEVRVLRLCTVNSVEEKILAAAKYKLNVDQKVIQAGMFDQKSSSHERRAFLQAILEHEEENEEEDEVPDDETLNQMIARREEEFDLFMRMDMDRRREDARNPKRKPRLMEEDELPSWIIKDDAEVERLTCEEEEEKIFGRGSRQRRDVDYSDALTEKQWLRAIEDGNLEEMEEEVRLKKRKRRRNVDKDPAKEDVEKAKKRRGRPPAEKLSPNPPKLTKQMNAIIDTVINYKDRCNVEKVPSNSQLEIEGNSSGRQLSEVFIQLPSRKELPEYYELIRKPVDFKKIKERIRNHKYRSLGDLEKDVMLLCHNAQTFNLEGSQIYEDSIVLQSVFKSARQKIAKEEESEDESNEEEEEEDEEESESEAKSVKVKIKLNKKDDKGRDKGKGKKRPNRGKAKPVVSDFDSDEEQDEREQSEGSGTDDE
Put plainly: SMARCA2 HiBiT degradation assay in HeLa cells. Particulars: 18 hours, highest concentration 10 μM. In kind it is cell-based. The essentials:
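Degradation was read as Nano-Glo HiBiT lytic luminescence (30-60 min, RT) and fitted to curves. Compounds in 3-fold dilutions up to 10 μM were applied for 18 h at 37 °C. Cells were 2500/well monoclonal HeLa with a heterozygous C-terminal HiBiT tag on SMARCA2.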

On to `Cc1cc(O[C@@H]2C[C@@H]3CNc4nnc(-c5cc(F)cc(F)c5O)cc4N3C2)ncc1CN1CCC(c2ccc3c(c2)C(=O)N([C@H]2CCC(=O)NC2=O)C3)CC1` [Example 29, (S)-3-(6-(1-((6-(((6aR,8R)-2-(3,5-difluoro-2-hydroxyphenyl)-5,6,6a,7,8,9-hexahydropyrrolo[1′,2′:4,5]pyrazino[2,3-c]pyridazin-8-yl)oxy)-4-methylpyridin-3-yl)methyl)piperidin-4-yl)-1-oxoisoindolin-2-yl)piperidine-2,6-dione], for which the DC50 at SMARCA4 and at SMARCA2 was less than 100 nM in each case. The results for the Dmax on SMARCA4 and on SMARCA2 were 50 to 75% and greater than 75%, respectively.
On SMARCA4, `Cc1nc(O[C@@H]2C[C@@H]3CNc4nnc(-c5cc(F)cc(F)c5O)cc4N3C2)ccc1CN1CCN(c2ccc3c(c2)C(=O)N([C@H]2CCC(=O)NC2=O)C3)CC1` [Example 30, (S)-3-(6-(4-((6-(((6aR,8R)-2-(3,5-difluoro-2-hydroxyphenyl)-5,6,6a,7,8,9-hexahydropyrrolo[1′,2′:4,5]pyrazino[2,3-c]pyridazin-8-yl)oxy)-2-methylpyridin-3-yl)methyl)piperazin-1-yl)-1-oxoisoindolin-2-yl)piperidine-2,6-dione] registered a DC50 of less than 100 nM and a Dmax greater than 75%. On SMARCA2, this molecule returned a DC50 of less than 100 nM and a Dmax greater than 75%.
On SMARCA4, `Cc1cc(CN2CCN(c3ccc4c(c3)C(=O)N(C3CCC(=O)NC3=O)C4)CC2)cnc1O[C@@H]1C[C@@H]2CNc3nnc(-c4cc(F)cc(F)c4O)cc3N2C1` (stereo partly drawn) [Example 31, 3-(6-(4-((6-(((6aR,8R)-2-(3,5-difluoro-2-hydroxyphenyl)-5,6,6a,7,8,9-hexahydropyrrolo[1′,2′:4,5]pyrazino[2,3-c]pyridazin-8-yl)oxy)-5-methylpyridin-3-yl)methyl)piperazin-1-yl)-1-oxoisoindolin-2-yl)piperidine-2,6-dione] registered a DC50 of less than 100 nM and a Dmax greater than 75%. Moreover, on SMARCA2, the DC50 was less than 100 nM and the Dmax is greater than 75%.
Regarding `O=C1CCC(N2Cc3ccc(N4CCN(Cc5ccc(S[C@@H]6C[C@@H]7CNc8nnc(-c9cc(F)cc(F)c9O)cc8N7C6)cc5)CC4)cc3C2=O)C(=O)N1` (stereo partly shown) [Example 32], the DC50 on SMARCA4 and at SMARCA2 was less than 100 nM each time. Further, the Dmax is 50 to 75% at SMARCA4 and greater than 75% at SMARCA2.
Take `O=C1CCC(N2Cc3ccc(N4CCN(Cc5ccc(O[C@@H]6C[C@@H]7CNc8nnc(-c9cc(F)cc(F)c9O)cc8N7C6)nc5)CC4)cc3C2=O)C(=O)N1` (stereo partly drawn) [Example 33, 3-(6-(4-((6-(((6aR,8R)-2-(3,5-difluoro-2-hydroxyphenyl)-5,6,6a,7,8,9-hexahydropyrrolo[1′,2′:4,5]pyrazino[2,3-c]pyridazin-8-yl)oxy)pyridin-3-yl)methyl)piperazin-1-yl)-1-oxoisoindolin-2-yl)piperidine-2,6-dione]: at SMARCA4, the DC50 is less than 100 nM and the Dmax was greater than 75%. At SMARCA2, this molecule registered a DC50 of less than 100 nM and a Dmax greater than 75%.
For the molecule `C[C@@H]1CN(CC2CCN(c3ccc4c(c3)C(=O)N(C3CCC(=O)NC3=O)C4)CC2)C[C@H](C)N1C(=O)[C@@H]1C[C@@H]2CNc3nnc(-c4cccc(F)c4O)cc3N2C1` (stereo partly drawn) [Example 34, 3-(6-(4-(((3R,5S)-4-((6aR,8R)-2-(3-fluoro-2-hydroxyphenyl)-5,6,6a,7,8,9-hexahydropyrrolo[1′,2′:4,5]pyrazino[2,3-c]pyridazine-8-carbonyl)-3,5-dimethylpiperazin-1-yl)methyl)piperidin-1-yl)-1-oxoisoindolin-2-yl)piperidine-2,6-dione], on SMARCA4, the DC50 is greater than 1000 nM and the Dmax was less than 50%. On SMARCA2, this molecule showed a DC50 of less than 100 nM and a Dmax of 50 to 75%.
As to `CN(c1ccc(CN2CCN(c3ccc4c(c3)C(=O)N(C3CCC(=O)NC3=O)C4)CC2)cn1)[C@@H]1C[C@@H]2CNc3nnc(-c4cccc(F)c4O)cc3N2C1` (stereo partly drawn) [Example 35, 3-(6-(4-((6-(((6aR,8R)-2-(3-fluoro-2-hydroxyphenyl)-5,6,6a,7,8,9-hexahydro-pyrrolo[1′,2′:4,5]pyrazino[2,3-c]pyridazin-8-yl)(methyl)amino)pyridin-3-yl)methyl)piperazin-1-yl)-1-oxoisoindolin-2-yl)piperidine-2,6-dione], at SMARCA4, the DC50 was greater than 1000 nM and the Dmax was less than 50%. On SMARCA2, this molecule came in with a DC50 greater than 1000 nM and a Dmax of 50 to 75%.
With `Cc1cc(O[C@@H]2C[C@H]3CNc4nnc(-c5cccc(F)c5O)cc4N3C2)ccc1CN1CCN(c2ccc3c(c2)C(=O)N(C2CCC(=O)NC2=O)C3)CC1` (stereo partly drawn) [Example 36, 3-(6-(4-(4-(((6aS,8R)-2-(3-fluoro-2-hydroxyphenyl)-5,6,6a,7,8,9-hexahydro-pyrrolo[1′,2′:4,5]pyrazino[2,3-c]pyridazin-8-yl)oxy)-2-methylbenzyl)piperazin-1-yl)-1-oxoisoindolin-2-yl)piperidine-2,6-dione], at SMARCA4, the DC50 is less than 100 nM and the Dmax was greater than 75%. At SMARCA2, this molecule yielded a DC50 of less than 100 nM and a Dmax greater than 75%.
At SMARCA4, `Cc1cc(O[C@@H]2C[C@H]3CNc4nnc(-c5cccc(F)c5O)cc4N3C2)ccc1CN1CCC(c2ccc3c(c2)C(=O)N(C2CCC(=O)NC2=O)C3)CC1` (stereo partly drawn) [Example 37, 3-(6-(1-(4-(((6aS,8R)-2-(3-fluoro-2-hydroxyphenyl)-5,6,6a,7,8,9-hexahydropyrrolo[1′,2′:4,5]pyrazino[2,3-c]pyridazin-8-yl)oxy)-2-methylbenzyl)piperidin-4-yl)-1-oxoisoindolin-2-yl)piperidine-2,6-dione] registered a DC50 of less than 100 nM and a Dmax greater than 75%. Besides, at SMARCA2, the DC50 was less than 100 nM and the Dmax was greater than 75%.
With `Cc1cc(S[C@@H]2C[C@@H]3CNc4nnc(-c5cc(F)cc(F)c5O)cc4N3C2)ncc1CN1CCN(c2ccc3c(c2)C(=O)N([C@H]2CCC(=O)NC2=O)C3)CC1` [Example 38, (S)-3-(6-(4-((6-(((6aR,8R)-2-(3,5-difluoro-2-hydroxyphenyl)-5,6,6a,7,8,9-hexahydropyrrolo[1′,2′:4,5]pyrazino[2,3-c]pyridazin-8-yl)thio)-4-methylpyridin-3-yl)methyl)piperazin-1-yl)-1-oxoisoindolin-2-yl)piperidine-2,6-dione], at SMARCA4, the DC50 was greater than 1000 nM and the Dmax is less than 50%. On SMARCA2, this molecule displayed a DC50 of less than 100 nM and a Dmax greater than 75%.
`O=C1CCC(N2Cc3ccc(N4CCC(Cn5cc(O[C@@H]6C[C@@H]7CNc8nnc(-c9cc(F)cc(F)c9O)cc8N7C6)cn5)CC4)cc3C2=O)C(=O)N1` (stereo partly drawn) [Example 39, 3-(6-(4-((4-(((6aR,8R)-2-(3,5-difluoro-2-hydroxyphenyl)-5,6,6a,7,8,9-hexahydropyrrolo[1′,2′:4,5]pyrazino[2,3-c]pyridazin-8-yl)oxy)-1H-pyrazol-1-yl)methyl)piperidin-1-yl)-1-oxoisoindolin-2-yl)piperidine-2,6-dione]: the DC50 at SMARCA4 and on SMARCA2 was greater than 1000 nM each time.
For `Cc1nc(CN2CCN(c3ccc4c(c3)C(=O)N(C3CCC(=O)NC3=O)C4)CC2)cnc1O[C@H]1CN2c3cc(-c4cccc(F)c4O)nnc3NC[C@]2(C(F)F)C1` (stereo partly drawn) [Example 40, 3-(6-(4-((5-(((6aS,8R)-6a-(difluoromethyl)-2-(3-fluoro-2-hydroxyphenyl)-5,6,6a,7,8,9-hexahydropyrrolo[1′,2′:4,5]pyrazino[2,3-c]pyridazin-8-yl)oxy)-6-methylpyrazin-2-yl)methyl)piperazin-1-yl)-1-oxoisoindolin-2-yl)piperidine-2,6-dione], the DC50 was 100 to 1000 nM at SMARCA4 and less than 100 nM on SMARCA2. Further, the maximal degradation (Dmax) was less than 50% on SMARCA4 and greater than 75% at SMARCA2.
On to `Cc1nc(O[C@H]2CN3c4cc(-c5cccc(F)c5O)nnc4NC[C@]3(C(F)F)C2)nc(C)c1CN1CCN(c2ccc3c(c2)C(=O)N(C2CCC(=O)NC2=O)C3)CC1` (stereo partly drawn) [Example 41, 3-(6-(4-((2-(((6aS,8R)-6a-(Difluoromethyl)-2-(3-fluoro-2-hydroxy-phenyl)-5,6,6a,7,8,9-hexahydropyrrolo [1′,2′:4,5]pyrazino[2,3-c]pyridazin-8-yl)oxy)-4,6-dimethylpyrimidin-5-yl)methyl)piperazin-1-yl)-1-oxoisoindolin-2-yl)piperidine-2,6-dione], for which the results for the DC50 at SMARCA4 and at SMARCA2 were 100 to 1000 nM and less than 100 nM, respectively. In addition, the Dmax at SMARCA4 was less than 50%; on SMARCA2 it was greater than 75%.
The like results for `O=C1CCC(N2Cc3ccc(N4CCN(Cc5cnc(O[C@H]6CN7c8cc(-c9cccc(F)c9O)nnc8NC[C@]7(C(F)F)C6)nc5)CC4)cc3C2=O)C(=O)N1` (stereo partly drawn) [Example 42, 3-(6-(4-((2-(((6aS,8R)-6a-(difluoromethyl)-2-(3-fluoro-2-hydroxyphenyl)-5,6,6a,7,8,9-hexahydropyrrolo [1%2′:4,5]pyrazino[2,3-c]pyridazin-8-yl)oxy)pyrimidin-5-yl)methyl)piperazin-1-yl)-1-oxoisoindolin-2-yl)piperidine-2,6-dione] were, in that order, greater than 1000 nM, less than 100 nM, less than 50% and greater than 75%.
The like results for `O=C1CC[C@H](N2Cc3ccc(N4CCN(Cc5ccc(O[C@H]6CN7c8cc(-c9cccc(F)c9O)nnc8NC[C@@]7(C(F)F)C6)nc5)CC4)cc3C2=O)C(=O)N1` [Example 43, (S)-3-(6-(4-((6-(((6aR,8R)-6a-(difluoromethyl)-2-(3-fluoro-2-hydroxyphenyl)-5,6,6a,7,8,9-hexahydropyrrolo[1′,2′:4,5]pyrazino[2,3-c]pyridazin-8-yl)oxy)pyridin-3-yl)methyl)piperazin-1-yl)-1-oxoisoindolin-2-yl)piperidine-2,6-dione] were, in that order, greater than 1000 nM, less than 100 nM, less than 50% and greater than 75%.
